Measured values taken from publication PMC11696576, “Next generation thiazolyl ketone inhibitors of cytosolic phospholipase A2 α for targeted cancer therapy” (Nature Communications, 2025).
Several values for one entry are separate records, joined by “and”; a condition that tells them apart may be missing. Identical values can stand only once.

Assays:
MV-4-11 cells = test: cell viability, resazurin assay, MV-4-11; type: cell-based, human; conditions: for cell viability relative to 0 µM = 100 (Figure S7b): MV-4-11, rep1-4, listed as AVX420
Source text: Bjørn Tore Gjertsen (University of Bergen, Norway). […] The cell lines were not authenticated.
Figure S7. Sensitivity of cell lines derived from hematological malignancies. a. cell viability expressed as relative light units ( RLU) is plotted for all cell lines in the screen that were de-rived from hematological malignancies. b. corresponding IC50 values calculated by non-linear regression analysis. c. Cell viability assessed by resazurin assays in MV-4-11 and HL-60 cells.
Data were normalized to the vehicle-treated control (100%) and are the mean of 4 biological replicates ±stdev (MV-4-11) and 5 biological replicates ±stdev (HL-60), Non-linear regres- […]

CCRF-CEM cells = test: intracellular ROS, ROS-red staining and flow cytometry, CCRF-CEM; type: cell-based, human; parameters: ROS Negative Cells: unit not given here; conditions: for ROS Negative Cells / ROS Positive Cells: listed as AVX420
Protocol: (§1) Data are the mean ± stdev of 3 biological replicates. […] Data are the mean ± stdev of 3 biological replicates.
Rather, when combined with AVX420, exogenous AA augmented cell death (Fig. 6e). […] The response occurred within 1 h, peaked at 8–12 h, and preceded the loss of cell viability (Fig. S9a, b).
After treatment, cells were stained with cellular ROS Assay Kit (Cat. No. ab186029; Abcam, Cambridge, United Kingdom) following the manufacturer’s instructions, and ROS-positive cells were quantified by flow cytometry using either the NovoCyte flow cytometer, and Novoexpress Software v1.5.0 from Agilent Technologies (Santa Clara, USA) or the CytoFLEX flow cytometer and CytExpert analysis software v 2.5 from Beckman Coulter (California, United States). An example showing the gating strategy used to assess ROS-Red staining is found in Fig. S9d.
Figure S9. Intracellular ROS accumulation and cell death. a. Time dependency of the in-crease in iROS following treatment with AVX420 in CCRF-CEM cells as measured by ROS-red stain-ing. Data are the mean ±stdev from ≥2 biological replicates b. […]
±stdev of ≥2 biological replicates c. intracellular ROS measurements in CCRF-CEM cells treated with 0.5 µM AVX420 in the presence of 20 µM arachidonic acid (AA) or 5 µM liproxstatin (Lip) for 4 hours. Data are the mean ± stdev of 2 biological replicates. d. […]
analysis of ROS Red staining by flow cytometry. (i) Gating of live cells using FSC-H versus SSC-H.
(ii) Gating based on ROS Deep Red staining under control conditions and after treatment with (iii) […]
(§2) (1 picture or pasted object on this page, not shown here)

CD3+ T-cells = test: viability of healthy T-cells, propidium iodide exclusion; type: cell-based
Protocol: as §1
(§3) Propidium iodide exclusion was used to assess cell death by flow cytometry. After treatment, the cells were washed once with PBS and stained with 1.4 μg/mL propidium iodide (PI) for 5 min before quantification of PI negative and positive cells using a CytoFLEX flow cytometer (California, United States). An example of the gating strategy to assess PI staining can be found in Fig. S8c. […]
The propidium iodide exclusion assay was used to assess vi-ability of ungated PBMCs treated with AVX420 at the indicated doses for 24 hours .
(§4) Data are the mean ±stdev from 8 biological replicates (1-16 µM) and 5 biological rep- […]
(§5) iodide exclusion in CD3+ lymphocytes (T-cells). Cells appearing in the bottom right quadrant are PI-negative (live) T-cells while cells in the top right quadrant are PI-posi- […]
as §2

[1] = viability of PBMCs (CTG and propidium iodide exclusion); type: cell-based, human; conditions: human, read-out: PBMC viability relative to 0 µM = 100 (Figure S8a)
Protocol: as §3
(§6) cells. a. CTG assays were used to assess viability of PBMCs isolated from human blood after treatment with vehicle control (DMSO) or AVX420 at the indicated doses for either (i) 24 hours or (ii) 72 hours. Data are the mean ±stdev of 4 or 5 biological replicates respectively. b. The propidium iodide exclusion assay was used to assess vi-ability of ungated PBMCs treated with AVX420 at the indicated doses for 24 hours .
as §4, §5, §2

PBMCs = test: as above; type: cell-based, human; conditions: for PI Negative (Figure S8b) / PI Positive (Figure S8b): replicates; for PI Negative (Figure S8b) / PI Positive (Figure S8b) / PBMC viability relative to 0 µM = 100 (Figure S8a): listed as AVX420
Protocol: as §3, §6, §4, §5, §2

[2] = Figure 6c, 32 µM, listed as AVX420
[3] = up to a maximum dose tested of 32 µM

## CCCCCCCOc1ccc(OCC(=O)c2nc(C(=O)OC)cs2)cc1 [GK420]
MV-4-11 cells; Homo sapiens, MV4-11, resazurin assay
  IC50: 5.7 µM
MV-4-11 cells; 0.00306 µM
  cell viability relative to 0 µM = 100 (Figure S7b): 107.974 and 94.1556 and 88.3103 and 111.814
MV-4-11 cells; 0.00919 µM
  cell viability relative to 0 µM = 100 (Figure S7b): 108.045 and 93.3168 and 91.3448 and 113.05
MV-4-11 cells; 0.02757 µM
  cell viability relative to 0 µM = 100 (Figure S7b): 114.954 and 104.137 and 83.3442 and 127.148
MV-4-11 cells; 0.08272 µM
  cell viability relative to 0 µM = 100 (Figure S7b): 119.708 and 98.9766 and 68.867 and 129.045
MV-4-11 cells; 0.24815 µM
  cell viability relative to 0 µM = 100 (Figure S7b): 113.432 and 105.146 and 76.1961 and 124.847
MV-4-11 cells; 0.74444 µM
  cell viability relative to 0 µM = 100 (Figure S7b): 108.976 and 63.5816 and 66.7499 and 99.3411
MV-4-11 cells; 2.23333 µM
  cell viability relative to 0 µM = 100 (Figure S7b): 103.119 and 55.0214 and 81.5625 and 89.0387
MV-4-11 cells; 6.7 µM
  cell viability relative to 0 µM = 100 (Figure S7b): 80.6879 and 58.6991 and 52.7781 and 45.3319
MV-4-11 cells; 10 µM
  cell viability relative to 0 µM = 100 (Figure S7b): 48.2149 and 41.1505 and 41.4878 and 26.408
MV-4-11 cells; 30 µM
  cell viability relative to 0 µM = 100 (Figure S7b): 40.7033 and 23.5083 and 29.7689 and 20.683
CCRF-CEM cells; CCRF-CEM (Fig. S9a)
  time of iROS peak: 8 to 12 h
  time to iROS response: ≤ 1 h
CCRF-CEM cells; CCRF-CEM, 0.25 µM
  ROS Negative Cells: 70 and 65 and 71 and 61
  ROS Positive Cells: 39 and 30 and 35 and 29
CCRF-CEM cells; CCRF-CEM, 0.5 µM
  ROS Negative Cells: 34 and 29 and 30 and 32 and 33
  ROS Positive Cells: 70 and 68 and 67 and 66 and 71
CCRF-CEM cells; CCRF-CEM, 1 µM
  ROS Negative Cells: 13 and 15 and 12 and 11
  ROS Positive Cells: 89 and 87 and 85 and 88
CCRF-CEM cells; CCRF-CEM, 2 µM
  ROS Negative Cells: 8 and 6 and 9 and 10
  ROS Positive Cells: 90 and 92 and 94 and 91
CCRF-CEM cells; CCRF-CEM, 4 h
  intracellular ROS (iROS): dose-dependent increase
CD3+ T-cells; Figure 6c, 2 µM, listed as AVX420
  PI Negative: 96 and 98 and 95 and 91 and 89 and 97
CD3+ T-cells; Figure 6c, 8 µM, listed as AVX420
  PI Negative: 96 and 98 and 94 and 90 and 87 and 95 and 93
CD3+ T-cells; Figure 6c, 16 µM, listed as AVX420
  PI Negative: 96 and 98 and 94 and 90 and 84 and 91
CD3+ T-cells; [2]
  PI Negative: 92 and 94 and 89 and 91 and 90
  PI Positive: 6 and 11 and 9 and 10 and 8
CD3+ T-cells; [3]
  effect on healthy CD3+ T-cells: no effect
[1]; PBMC 72H, 1 µM, rep1-5
  viability at 72 h, 1 µM: 103%
[1]; PMBC 24H, 0.5 µM, rep1-4
  viability at 24 h, 0.5 µM: 99%
[1]; PMBC 24H, 1 µM, rep1-4
  viability at 24 h, 1 µM: 102%
[1]; PMBC 24H, 2 µM, rep1-4
  viability at 24 h, 2 µM: 98%
[1]; PMBC 24H, 4 µM, rep1-4
  viability at 24 h, 4 µM: 101%
[1]; PMBC 24H, 8 µM, rep1-4
  viability at 24 h, 8 µM: 102%
[1]; PMBC 24H, 16 µM, rep1-4
  viability at 24 h, 16 µM: 102%
[1]; PMBC 24H, 32 µM, rep1-4
  viability at 24 h, 32 µM: 101%
PBMCs; 0.5 µM
  PI Negative (Figure S8b): 87 (3×) and 88 and 86 (2×) and 81 and 79
  PI Positive (Figure S8b): 12 and 14 (2×) and 13 (3×) and 19 and 21
PBMCs; 1 µM
  PI Negative (Figure S8b): 86 (3×) and 88 and 87 (2×) and 81 and 79
  PI Positive (Figure S8b): 12 and 14 (3×) and 13 (2×) and 19 and 21
PBMCs; 2 µM
  PI Negative (Figure S8b): 86 (3×) and 88 and 85 and 81 and 79 and 87
  PI Positive (Figure S8b): 12 and 15 and 14 (3×) and 19 and 21 and 13
PBMCs; 4 µM
  PI Negative (Figure S8b): 87 (2×) and 88 and 85 and 86 and 80 and 79 and 84
  PI Positive (Figure S8b): 12 and 15 and 14 and 20 and 21 and 13 (2×) and 16
PBMCs; 8 µM
  PI Negative (Figure S8b): 86 and 88 and 84 (2×) and 80 and 77 and 85 and 83
  PI Positive (Figure S8b): 12 and 16 (2×) and 20 and 23 and 15 and 17 and 14
PBMCs; 16 µM
  PI Negative (Figure S8b): 86 and 88 and 84 (3×) and 80 and 74 and 81
  PI Positive (Figure S8b): 12 and 16 (3×) and 20 and 26 and 19 and 14
PBMCs; 32 µM
  PI Negative (Figure S8b): 82 and 84 and 79 and 81 and 80
  PI Positive (Figure S8b): 16 and 21 and 19 and 20 and 18
PBMCs; PBMC 72H, 0.5 µM, rep1-5
  PBMC viability relative to 0 µM = 100 (Figure S8a): 100 and 93 (2×) and 120
PBMCs; PBMC 72H, 1 µM, rep1-5
  PBMC viability relative to 0 µM = 100 (Figure S8a): 91 and 93 and 110 and 97
PBMCs; PBMC 72H, 4 µM, rep1-5
  PBMC viability relative to 0 µM = 100 (Figure S8a): 111 and 89 and 93 and 118 and 88
PBMCs; PBMC 72H, 8 µM, rep1-5
  PBMC viability relative to 0 µM = 100 (Figure S8a): 113 and 75 and 87 and 109 and 93
PBMCs; PBMC 72H, 16 µM, rep1-5
  PBMC viability relative to 0 µM = 100 (Figure S8a): 109 and 80 and 83 and 90
PBMCs; PBMC 72H, 32 µM, rep1-5
  PBMC viability relative to 0 µM = 100 (Figure S8a): 104 and 88 and 82 and 76 and 96
PBMCs; PMBC 24H, 0.5 µM, rep1-4
  PBMC viability relative to 0 µM = 100 (Figure S8a): 100 and 97 (2×)
PBMCs; PMBC 24H, 1 µM, rep1-4
  PBMC viability relative to 0 µM = 100 (Figure S8a): 94 and 95
PBMCs; PMBC 24H, 2 µM, rep1-4
  PBMC viability relative to 0 µM = 100 (Figure S8a): 97
PBMCs; PMBC 24H, 4 µM, rep1-4
  PBMC viability relative to 0 µM = 100 (Figure S8a): 97 and 96
PBMCs; PMBC 24H, 8 µM, rep1-4
  PBMC viability relative to 0 µM = 100 (Figure S8a): 105
PBMCs; PMBC 24H, 32 µM, rep1-4
  PBMC viability relative to 0 µM = 100 (Figure S8a): 104
PBMCs; [3]
  effect on healthy PBMCs: no effect
